BindingDB's records for doi:10.1021/acs.jmedchem.8b01224 (Helmholtz Zentrum M?nchen, 2018)

Assays:
[1] = target: T1, Tyrosine-protein phosphatase non-receptor type 1 (Homo sapiens, UniProt P18031); assay: (§1) Binding affinity to human N-terminal His6-tagged PTP1B catalytic domain (1 to 298 residues) expressed in Escherichia coli strain Rosetta2 (DE3) assessed as dissociation rate constant using DiFMUP as substrate preincubated for 10 mins followed by substrate addition measured for 10 mins fluorescence assay
T1 sequence (P18031 whole entry): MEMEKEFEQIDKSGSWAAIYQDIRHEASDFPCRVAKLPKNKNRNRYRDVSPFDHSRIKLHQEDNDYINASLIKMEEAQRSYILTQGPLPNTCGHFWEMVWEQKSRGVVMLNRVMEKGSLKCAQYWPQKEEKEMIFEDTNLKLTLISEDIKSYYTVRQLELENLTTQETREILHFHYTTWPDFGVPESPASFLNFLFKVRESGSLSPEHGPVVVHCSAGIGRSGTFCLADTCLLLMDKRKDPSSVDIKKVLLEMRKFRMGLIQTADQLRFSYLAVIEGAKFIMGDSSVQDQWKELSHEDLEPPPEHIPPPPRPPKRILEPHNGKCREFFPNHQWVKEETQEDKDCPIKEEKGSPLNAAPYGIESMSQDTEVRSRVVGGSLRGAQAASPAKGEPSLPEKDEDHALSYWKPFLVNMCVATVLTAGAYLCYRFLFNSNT

[2] = target: T1, Tyrosine-protein phosphatase non-receptor type 1; assay: as §1, with “association” for “dissociation”

Q: Which results are given for `C=c1c(O)c(O)cc2c1=CC=C1[C@@]2(C)CC[C@@]2(C)[C@@H]3C[C@](C)(C(=O)O)CC[C@]3(C)CC[C@]12C`?
A: koff [1]: 0.000362 s⁻¹; kon [2]: 59 M⁻¹ s⁻¹
